Results as given in patent US20260240877A1, “INOSITOL PHOSPHATE COMPOUNDS FOR USE IN INCREASING TISSULAR PERFUSION” (SANIFIT THERAPEUTICS, S.A., priority 2019, published 2026).

What was measured:
[1] = test system: Sprague Dawley (SD) rats with vitamin D3-induced limb ischemia; experiment: Walking ability (MWD, MWT) by treadmill running test, prevention of vitamin D3-induced limb ischemia; type: in vivo, rat
Protocol: (§1) Quantification of walking ability (maximal waling time (MWT) and maximal walking distance (MWD)) are measured by a forced incremental treadmill running test. A two-lane rodent treadmill (LE8709TS; PanLab/Harvard Apparatus, Holliston, MA, US) is employed. The treadmill is maintained at a 15% inclination running at a speed of 15 m/min (25 cm/sec) during the first 5 min, then at 33 cm/see during the following 5 min, and finally, at a speed of 40 cm/see for a maximum of 30 additional minutes.
Subjects are exercised in the treadmill for acclimatization according to a set protocol prior to testing.
Subjects are kept running for up to 40 min or until exhausted (i.e., they remain on the shock grid for five continuous seconds) during the test. MWD and MWT are then calculated for each animal.
Maximal waling time (MWT) and maximal walking distance (MWD) were assessed in groups 1~4 by the treadmill running test (8 to10 animals per group and time point) in DO, D5, D10, and D17.
Subjects were acclimatized to the treadmill for two days before conducting the test. On the first day, subjects were exercised for 5 to 10 minutes with the treadmill speed ranging progressively from 15 m/min to 24 m/min. On the second day, the subjects were exercised initially at a speed of 15 m/min for the 5 minutes. Then, they were exercised at 19.8 m/min (33 cm/sec) for 5 additional minutes. Finally, the subjects were exercised at 24 m/min (40 cm/sec) for a maximum 30 additional minutes. Preoperative walking time and distance recordings were obtained.
Limb function (MWT and MWD) was assessed in groups 1, 2, and 3 using the treadmill running test 15 min after the corresponding daily administration. Limb function in groups 4 was assessed from 3 to 4 hours after treatment.
(§2) The subjects were kept running for 40 minutes or until exhausted (i.e., they remain on the shock grid for five continuous seconds). MWD and MWT was then calculated for each animal.
Maximal walking time (MWT) and maximal walking distance (MWD) were assessed in groups 1-8 by the treadmill running test (8 to12 animals per group and time point) in DO, D5 and D10.
Limb function (MWT and MWD) was assessed in groups 1, 2, 3, 4, 5, 6 and 7 using the treadmill running test 15 min after the corresponding daily administration. Limb function in group 8 was assessed from 3 to 4 hours after treatment.

[2] = test system: adenine-induced uremic Sprague Dawley (SD) rats; experiment: Heart and aorta calcification (calcium content by ICP-OES), adenine-induced uremic rat model; type: in vivo; details: Example 6; SNF472 s.c. dosing or Alzet pump; cilostazol 45 mg/kg oral; D21
Protocol: Uremia and limb ischemia were induced in groups 2-6 by a daily dose of adenine (500 mg/kg, suspended in 1% carboxymethyl cellulose, administered orally) for the first 10 days, and then with a dose of α-calcidol (100 ng/kg in olive oil, administered orally) three times per week from D11 to D19, to accelerate and homogenize the development of cardiovascular calcification and ischemia. Subjects were anesthetized and their blood was obtained in D21. The subjects were sacrificed after exsanguination. Then, their necropsies were performed, and their heart and aorta arteries were collected. The tissues were lyophilized for 24 h and weighed. The lyophilized tissues were then digested using a 1:1 HNO3: HClO4 mixture in a dry bath incubator for 2-4 h at 180° C. The digested tissues were subsequently diluted using ultra-pure Milli-Q water (MilliporeSigma (Merck KGaA), Burlington, MA, US) to a final volume of 10 mL. The calcium content in the tissue samples was quantified via ICP-OES.

[3] = in vivo; cited from earlier work
[4] = test system: Sprague Dawley (SD) rats with vitamin D3-induced limb ischemia; experiment: Walking ability by treadmill running test, treatment after inception of limb ischemia; type: in vivo, rat; details: Example 3; 40 mg/kg/day, treatment started 5 days after ischemia induction, D11
Protocol: as §1
Maximal walking time (MWT) and maximal walking distance (MWD) were assessed in all groups at DO and in groups 1, 3a, 3b, 4, and 5 at D6 and D11 by the treadmill running test (8 to 12 animals per group and time point). Subjects were acclimatized to the treadmill for two days before conducting the test. On the first day, subjects were exercised for 5 to 10 minutes with the treadmill speed ranging progressively from 15 m/min to 24 m/min. […]
Limb function (MWT and MWD) was assessed in groups 1, 3a, 3b, and 4 using the treadmill running test 15 min after the corresponding daily administration. Limb function in groups 5 was assessed from 3 to 4 hours after treatment.
as §2

[5] = test system: Sprague Dawley (SD) rats treated with vitamin D3; experiment: Tissue calcification (calcium content by ICP-OES), VitD rat model, prevention; type: in vivo
Text: Subjects are anesthetized by isoflurane inhalation. Blood is obtained by exsanguination through cardiac puncture. The subjects are then sacrificed and their tissues (e.g., right and left femoral arteries, aorta) are collected. The blood and tissues are processed and analyzed for determining their calcium contents. Calcium content in tissue sample is quantified via inductively coupled plasma optical emission spectrometry (ICP-OES) using an Optima 7300 DV ICP-OES System spectrometer (PerkinElmer, Inc., Waltham, MA, US) according to the manufacturer's instructions. […] The subjects from groups 1, 2, 3 and 5 were sacrificed after exsanguination. Then, their necropsies were performed, and their aortas were collected. The tissues were lyophilized for 24 h and weighed. The lyophilized tissues were then digested using a 1:1 HNO3: HClO4 mixture in a dry bath incubator for 2-4 h at 180° C. The digested tissues were subsequently diluted using ultra-pure Milli-Q water (MilliporeSigma (Merck KGaA), Burlington, MA, US) to a final volume of 10 mL. The calcium content in the aorta sample was quantified via ICP-OES. Subjects were anesthetized and their blood was obtained in D24. The subjects were sacrificed after exsanguination. Then, their necropsies were performed, and their aortas were collected. The tissues were lyophilized for 24 h and weighed. The lyophilized tissues were then digested using a 1:1 HNO3: HClO4 mixture in a dry bath incubator for 2-4 h at 180° C. The digested tissues were subsequently diluted using ultra-pure Milli-Q water (MilliporeSigma (Merck KGaA), Burlington, MA, US) to a final volume of 10 mL. The calcium content in the tissue samples was quantified via ICP-OES. Subjects were anesthetized and their blood was obtained in D12. The subjects were sacrificed after exsanguination. Then, their necropsies were performed, and their heart and aorta arteries were collected. The tissues were lyophilized for 24 h and weighed. […] The calcium content in the tissue samples was quantified via ICP-OES.

[6] = test system: adenine-induced uremic Sprague Dawley (SD) rats; experiment: Limb blood perfusion by laser doppler perfusion imaging, adenine-induced uremic rat model; type: in vivo; details: Example 6; SNF472 30, 45 mg/kg s.c. or 400 mg/4 weeks Alzet pump; cilostazol 45 mg/kg oral; D1 to D21
Protocol: (§3) Position limb blood perfusion and ischemia status (i.e., blood perfusion including, perfusion unit, perfusion difference and perfusion ratio) is evaluated by laser doppler perfusion imaging using a PeriCam PSI NR imager (Perimed AB, Järfä11a, SE). Subjects are anesthetized using 3% isoflurane delivered in 100% oxygen at a flow rate at 1 L/min before measuring. The perfusion difference and perfusion ratio are calculated by comparing the baseline and any indicated interim or final readings for each group.
Uremia and limb ischemia were induced in groups 2-6 by a daily dose of adenine (500 mg/kg, suspended in 1% carboxymethyl cellulose, administered orally) for the first 10 days, and then with a dose of α-calcidol (100 ng/kg in olive oil, administered orally) three times per week from D11 to D19, to accelerate and homogenize the development of cardiovascular calcification and ischemia.
Animals in group 6 were administered orally 45 mg/kg cilostazol (C20H27N5O2, free base 369.46 g/mol; lot no. LRAB9590, Sigma-Aldrich Corp., St. Louis, MO, US) in a 5% CMC sodium salt in water solution (5 mL/kg) daily from D1 to D21.
Limb ischemia status was evaluated during treatment (i.e., DO, D10 and D17 and D21) in all rats by laser doppler perfusion imaging. The perfusion difference and perfusion ratio were calculated by comparing the baseline and of the D10, D17 and D21 readings for each group.

[7] = test system: Sprague Dawley (SD) rats with vitamin D3-induced limb ischemia; experiment: Limb blood perfusion by laser doppler perfusion imaging, prevention of vitamin D3-induced limb ischemia; type: in vivo, rat
Protocol: as §3, with “group. […]” for “group.”
Limb ischemia status was evaluated at days DO (baseline), D6 and D12 in all rats by laser doppler perfusion imaging. The perfusion difference and perfusion ratio were calculated by comparing the DO baseline and either the D6 and D12 readings for each group. […]
Limb ischemia status was evaluated during treatment and after treatment was interrupted (i.e., DO, D6, D12, D18) in all rats by laser doppler perfusion imaging. The perfusion difference and perfusion ratio were calculated by comparing the baseline and either of the D6, D12, and D18 readings for each group. […]
Limb ischemia status was evaluated during the treatment period (i.e., DO, D6 and D12) by laser doppler perfusion imaging in all rats. The perfusion difference and perfusion ratio were calculated by comparing the baseline and either of the D6 and D12 readings for each group.

[8] = test system: Sprague Dawley (SD) rats with vitamin D3-induced limb ischemia; experiment: Limb blood perfusion by laser doppler perfusion imaging, treatment after inception of limb ischemia; type: in vivo, rat; details: Example 3; 40 mg/kg daily D5 to D13
Protocol: Position limb blood perfusion and ischemia status (i.e., blood perfusion including, perfusion unit, perfusion difference and perfusion ratio) is evaluated by laser doppler perfusion imaging using a PeriCam PSI NR imager (Perimed AB, Järfä11a, SE). Subjects are anesthetized using 3% isoflurane delivered in 100% oxygen at a flow rate at 1 L/min before measuring. The perfusion difference and perfusion ratio are calculated by comparing the baseline and any indicated interim or final readings for each group. […] Limb ischemia was induced in the subjects of groups 2-5 by subcutaneous administration of 120,000 IU/kg vitamin D3 (cholecalciferol, Duphafral D3 1000; Zoetis Inc., Parsippany, NJ, US) in physiological saline solution (2 mL/kg) every day during D1 to D3. The group 1 subjects were administered physiological saline solution (2 mL/kg) subcutaneously every day from D1 to D3 with no vitamin D3. Subjects in groups 3a placebo were administered 2 mL/kg of physiological saline solution daily from D5 to D13 via subcutaneous route. Subjects in group 3b placebo were administered orally 5 mL/kg of a 5% CMC sodium salt in water solution daily from D5 to D13. […] The perfusion difference and perfusion ratio were calculated by comparing the baseline and either D5 and D13 readings for each group.

[9] = test system: people with symptomatic PAD; details: recent studies in PAD patients; cited from earlier work

Compound | improvement of Maximal Walking Distance (MWD) compared to vehicle ([1]; Example 2, 20 mg/kg daily, D10) | improvement of Maximal Walking Time (MWT) compared to vehicle ([1]; Example 2, 20 mg/kg daily, D10) | effect on walking ability after interrupting treatment ([1]; Example 2, D17, 5 days after interrupting treatment) | walking ability compared to vehicle ([1]; Example 5, SNF472 1-45 mg/kg s.c., cilostazol 45 mg/kg oral, daily D1 to D12) | heart and aorta arteries calcification in uremic rats [2] | side effects [3] | improvement of walking ability (MWD) compared to vehicle [4] | inhibition of aorta calcification compared to placebo ([5]; Example 1, 20 mg/kg daily, D12) | inhibition of aorta calcification compared to placebo ([5]; Example 2, 20 mg/kg daily D1 to D12, D24 (12 days after interruption of treatment)) | heart and aorta arteries calcification ([5]; Example 5, SNF472 1-45 mg/kg s.c., cilostazol 45 mg/kg oral, D12) | rat limb ischemia in uremic rats (blood perfusion) [6] | rat limb ischemia (blood perfusion) ([7]; Example 2, 20 mg/kg daily D1 to D12 (SNF472 s.c., cilostazol oral)) | rat limb ischemia (blood perfusion) ([7]; Example 5, SNF472 1, 7.5, 15, 30, 45 mg/kg s.c., cilostazol 45 mg/kg oral, daily D1 to D12) | limbs blood perfusion in D13 compared to D5 before treatment [8] | intermittent claudication symptoms or maximal walking distance versus placebo [9]
O=C1CCc2cc(OCCCCc3nnnn3C3CCCCC3)ccc2N1 [Cilostazol, 6-[4-(1-cyclohexyl-1H-tetrazol-5yl)butoxy]-3,4-dihydro-2 (1H)-quinolinone] | +54% | +46% | lost its beneficial effects | improved walking ability | not active against calcification | headache, diarrhea, palpitations, and lightheadedness | not effective | not active against calcification | not active against calcification | not active against calcification | not effective | not effective | not effective | No improvement or ischemia rescue | –
CC(=O)CCCCn1c(=O)c2c(ncn2C)n(C)c1=O [pentoxifylline] | – | – | – | – | – | – | – | – | – | – | – | – | – | – | not significantly improved
